The text below walks through data of patent US7435751B2, “7-Fluoro-1,3-dihydro-indol-2-one oxazolidinones as antibacterial agents” (priority 2005, dated 2008).

Values after ≈ are worked out from the molar mass of the structure shown.

The subject of one experiment is S. aureus UC-76 SA-1. As to the kind of experiment: In vitro antibacterial activity against S. aureus UC-76 SA-1. In kind it is cell-based. The settings on record: Staphylococcus aureus, UC76; strain UC-76 SA-1. From the text:
(§1) The in vitro antibacterial activity of the compounds of the present invention may be assessed by following procedures recommended in (1) National Committee for Clinical Laboratory Standards (January 2003), Methods for dilution antimicrobial tests for bacteria that grow aerobically, Approved Standard (6th ed), M7-A6, NCCLS, Wayne, Pa.; (2) National Committee for Clinical Laboratory Standards (March 2001), Methods for antimicrobial susceptibility testing of anaerobic bacteria, Approved Standard (5th ed), M11-A4, NCCLS, Wayne, Pa.; (3) National Committee for Clinical Laboratory Standards (Jan. 2003), MIC testing supplemental tables, M100-S13 (for use with M7-A6), NCCLS, Wayne, Pa.; and (4) Murray P R, Baron E J, Jorgensen J H, et al. Manual of Clinical Microbiology (8th ed) Washington, D.C.: American Society for Microbiology Press, 2003. The antibacterial activity can be presented in the form of MIC value. The MIC value is the lowest concentration of drug which prevented macroscopically visible growth under the conditions of the test.

The subject of another experiment is S. pneumoniae SV1 SP-3. As to the kind of experiment: In vitro antibacterial activity against S. pneumoniae SV1 SP-3. The settings on record: Streptococcus pneumoniae, SV1SP3; strain SV1 SP-3. In kind it is cell-based.
From the text: as §1

A further experiment concerns E. faecalis MGH-2 EF 1-1. As to the kind of experiment: In vitro antibacterial activity against E. faecalis MGH-2 EF 1-1. In kind it is cell-based. The settings on record: Enterococcus faecalis, MGH2EF11; strain MGH-2 EF 1-1.
From the text: as §1

The next experiment concerns S. aureus (LORSA). Put plainly: In vitro antibacterial activity, MIC90 against S. aureus (LORSA). The settings on record: Staphylococcus aureus. In kind it is cell-based.
From the text: as §1

In the next experiment the test system is S. pneumoniae (LRSA). Put plainly: In vitro antibacterial activity, MIC90 against S. pneumoniae (LRSA). In kind it is cell-based. The settings on record: Streptococcus pneumoniae.
From the text: as §1

The subject of a further experiment is E. faecalis (VREF). Put plainly: In vitro antibacterial activity, MIC90 against E. faecalis (VREF). The settings on record: Enterococcus faecalis. In kind it is cell-based.
From the text: as §1

Another experiment relates to E. faecium (VREF). As to the kind of experiment: In vitro antibacterial activity, MIC90 against E. faecium (VREF). The settings on record: Enterococcus faecium. In kind it is cell-based.
From the text: as §1

The target of a further experiment is T1, MAO-A (Homo sapiens, UniProt P21397).
T1 sequence (P21397 1-527): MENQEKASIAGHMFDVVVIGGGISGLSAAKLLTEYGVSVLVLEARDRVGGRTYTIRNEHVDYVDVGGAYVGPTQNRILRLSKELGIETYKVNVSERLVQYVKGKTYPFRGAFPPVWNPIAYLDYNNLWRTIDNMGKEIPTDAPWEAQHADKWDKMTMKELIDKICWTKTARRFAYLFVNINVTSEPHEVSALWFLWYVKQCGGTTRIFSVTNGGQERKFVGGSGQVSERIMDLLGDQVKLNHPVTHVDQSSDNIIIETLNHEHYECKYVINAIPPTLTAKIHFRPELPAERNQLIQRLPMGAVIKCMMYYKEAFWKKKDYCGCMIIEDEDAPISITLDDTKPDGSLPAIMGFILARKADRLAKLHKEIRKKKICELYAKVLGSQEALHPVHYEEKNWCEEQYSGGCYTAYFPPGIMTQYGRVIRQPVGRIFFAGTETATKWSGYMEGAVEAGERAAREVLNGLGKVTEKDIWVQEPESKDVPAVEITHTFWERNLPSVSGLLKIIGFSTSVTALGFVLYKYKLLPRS
Put plainly: Monoamine oxidase A inhibition (conversion of MAO substrate to dihydropyridinium metabolite). The settings on record: substrate at Km 64 μM; MAO-A 0.01 mg/mL. In kind it is biochemical. The method, then:
(§2) Following procedure may assess monoamine oxidase inhibition activity of the compounds of the present invention:
(§3) MAO-A and B inhibition were analyzed by measuring the inhibition of conversion of an MAO substrate, 1-methyl-4-(1-methyl-2-pyrryl)-1,2,3,6-tetrahydropyridine, to its dihydropyridinium metabolite (λ=421 nm). The substrate concentration was equal to the Km (64 μM for MAO-A and 43 μM for MAO-B). The MAO-A concentration was 0.01 mg/mL, and the MAO-B concentration was 0.008 mg/mL. Each inhibitor was tested at seven concentrations. Percent inhibition at each concentration was established relative to the uninhibited control rate, and the IC50 and Ki values were calculated.

The next experiment addresses T2, MAO-B (Homo sapiens, UniProt P27338).
T2 sequence (P27338 1-520): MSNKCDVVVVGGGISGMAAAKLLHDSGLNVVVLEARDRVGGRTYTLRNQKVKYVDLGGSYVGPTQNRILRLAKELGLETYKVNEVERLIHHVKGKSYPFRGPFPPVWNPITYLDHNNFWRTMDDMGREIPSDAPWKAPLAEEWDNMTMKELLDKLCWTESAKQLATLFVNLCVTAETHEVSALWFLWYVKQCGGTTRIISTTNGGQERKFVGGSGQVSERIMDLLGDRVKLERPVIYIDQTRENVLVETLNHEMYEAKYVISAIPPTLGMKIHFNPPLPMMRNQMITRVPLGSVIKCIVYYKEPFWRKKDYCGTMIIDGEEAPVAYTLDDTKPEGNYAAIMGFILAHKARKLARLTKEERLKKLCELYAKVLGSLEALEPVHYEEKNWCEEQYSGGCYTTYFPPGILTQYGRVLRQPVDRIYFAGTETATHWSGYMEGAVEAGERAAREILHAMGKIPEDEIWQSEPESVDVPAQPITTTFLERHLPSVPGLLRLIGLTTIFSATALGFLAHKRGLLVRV
As to the kind of experiment: Monoamine oxidase B inhibition (conversion of MAO substrate to dihydropyridinium metabolite). In kind it is biochemical. The settings on record: substrate at Km 43 μM; MAO-B 0.008 mg/mL. The method, then: as §2, §3

Turning to `COC(=O)NC[C@H]1CN(c2cc(F)c3c(c2)CC(=O)N3C2CC2)C(=O)O1` [Example 6, (S)-[3-(1-cyclopropyl-7-fluoro-2-oxo-2,3-dihydro-1H-indol-5-yl)-2-oxo-oxazolidin-5-ylmethyl]-carbamic acid methyl ester], the MIC90 with S. aureus UC-76 SA-1, with S. pneumoniae SV1 SP-3 and against E. faecalis MGH-2 EF 1-1 was 8 µg/mL (≈ 22 µM) each time.

For the compound `COC(=O)NC[C@H]1CN(c2cc(F)c3c(c2)CC(=O)N3CCF)C(=O)O1` [Example 4, (S)-{3-[7-fluoro-1-(2-fluoro-ethyl)-2-oxo-2,3-dihydro-1H-indol-5-yl]-2-oxo-oxazolidin-5-ylmethyl}-carbamic acid methyl ester], the MIC90 was found to be 4 µg/mL (≈ 10.8 µM) against S. aureus UC-76 SA-1, 4 µg/mL (≈ 10.8 µM) in the experiment with S. pneumoniae SV1 SP-3 and 2 µg/mL (≈ 5.42 µM) in the experiment with E. faecalis MGH-2 EF 1-1.

On to `CCCN1C(=O)Cc2cc(N3C[C@H](CNC(=O)OC)OC3=O)cc(F)c21` [Example 5, (S)-[3-(7-fluoro-2-oxo-1-propyl-2,3-dihydro-1H-indol-5-yl)-2-oxo-oxazolidin-5-ylmethyl]-carbamic acid methyl ester], for which the MIC90 in the experiment on S. aureus UC-76 SA-1 stood at 8 µg/mL (≈ 21.9 µM); in the experiment with S. pneumoniae SV1 SP-3 it was 4 µg/mL (≈ 10.9 µM); against E. faecalis MGH-2 EF 1-1, 8 µg/mL (≈ 21.9 µM).

In the case of `COC(=O)NC[C@H]1CN(c2cc(F)c3c(c2)CC(=O)N3CC2CC2)C(=O)O1` [Example 7, (S)-[3-(1-cyclopropylmethyl-7-fluoro-2-oxo-2,3-dihydro-1H-indol-5-yl)-2-oxo-oxazolidin-5-ylmethyl]-carbamic acid methyl ester], the MIC90 in the experiment on S. aureus UC-76 SA-1, against S. pneumoniae SV1 SP-3 and against E. faecalis MGH-2 EF 1-1 was 4 µg/mL (≈ 10.6 µM) throughout.

With `CCN1C(=O)Cc2cc(N3C[C@H](CNC(=O)OC)OC3=O)cc(F)c21` [Example 3, (S)-[3-(1-ethyl-7-fluoro-2-oxo-2,3-dihydro-1H-indol-5-yl)-2-oxo-oxazolidin-5-ylmethyl]-carbamic acid methyl ester], the MIC90 was determined as 4 µg/mL (≈ 11.4 µM) against S. aureus UC-76 SA-1, 4 µg/mL (≈ 11.4 µM) against S. pneumoniae SV1 SP-3 and 2 µg/mL (≈ 5.69 µM) against E. faecalis MGH-2 EF 1-1.

For the compound `COC(=O)NC[C@H]1CN(c2cc(F)c3c(c2)CC(=O)N3C)C(=O)O1` [Example 1, (5S)-[3-(7-fluoro-1-methyl-2-oxo-2,3-dihydro-1H-indol-5-yl)-2-oxo-oxazolidin-5-ylmethyl]-carbamic acid methyl ester], the MIC90 with S. aureus (LORSA), in the experiment on S. pneumoniae (LRSA), against E. faecalis (VREF) and in the experiment with E. faecium (VREF) was 4 µg/mL (≈ 11.9 µM) each time. The Ki on MAO-A was determined as 722 µM; at MAO-B, 52.6 µM.

As to `COC(=O)NC[C@H]1CN(c2cc(F)c3c(c2)CC(=O)N3C(C)C)C(=O)O1` [Example 2, (5S)-[3-(7-fluoro-1-isopropyl-2-oxo-2,3-dihydro-1H-indol-5-yl)-2-oxo-oxazolidin-5-ylmethyl]-carbamic acid methyl ester], the MIC90 was found to be 4 µg/mL (≈ 10.9 µM) with S. aureus (LORSA), 2 µg/mL (≈ 5.47 µM) in the experiment on S. pneumoniae (LRSA), 2 µg/mL (≈ 5.47 µM) in the experiment on E. faecalis (VREF) and 2 µg/mL (≈ 5.47 µM) against E. faecium (VREF). The inhibition constant (Ki) on MAO-A is over 500 µM; on MAO-B, 3.17 µM.

In general, MIC90 refers to an inhibitory concentration at the 90% level, which refers to growth in some studies and to a panel of isolates in others. Lower therefore signals greater potency. For orientation: Ki means the equilibrium dissociation constant of an inhibitor or competing ligand from its target.
